Results as given in patent US20210244712A1, “METHODS FOR TREATING PATIENTS WITH CANCER HAVING DEFECTS IN CYCLIN D REGULATION” (NysnoBio Ireland DAC, priority 2018, published 2021).

Assays:
cyclin D1 [1] = assay: Western blot of Cyclin D1 in Mino cells, Example 6C; assay type: cell-based; settings: compared to control (DMSO)
Procedure: Mino cells have a chromosomal translocation of the Cyclin D gene that increases expression of cyclin D1. Western blot analysis was then carried out to look at Cyclin D1 (Abeam—ab134175) and GAPDH (Sigma—G9545) levels after treatment with Compounds F, S3, 42, and 146.

cyclin D1 [2] = assay: Western blot of Cyclin D1, Example 6B; assay type: cell-based; settings: 250 nM, 24 h, compared to control (DMSO)
Procedure: Cells were plated at a density of 3×10^5 cells/well for 24 hrs. Representative compounds or DMSO alone was then added to the wells for 24 h at 250 nM (note: Compound F was administered at a concentration of 2 μM). Cells were trypsinised, pelleted, washed ×3 in PBS, and lysed using a 2% SDS lysis solution (Sigma—05030).
Western blot analysis was then carried out to look at Cyclin D1 (Abeam—ab134175), PRK8 (Sigma—P6248), Rb (Abeam—[…]) and GAPDH (Sigma—G9545) levels.

HCT-116 xenograft = assay: Subcutaneous HCT-116 xenograft model, tumor volume; assay type: in vivo, nude mice; settings: Groups 2-6 of Table 8 (Compound 42 1 and 5, Q3 5 and 15, F 25 mg/kg); IP daily for 20 days; 28 days; vs control
Procedure: The efficacy of Compound 42, Compound F, and Compound Q3 were evaluated in the treatment of subcutaneous HCT-116 xenograft model in nude mice.
Cell Culture: HCT-116 tumor cell lines were maintained in vitro as a monolayer culture in DMEM medium supplemented with 10% fetal bovine serum at 37° C. in an atmosphere of 5% CO2 in air. The tumor cells were routinely subcultured twice weekly by trypsin-EDTA treatment (0.05% Trypsin-EDTA) and 1:4 split: The cells in an exponential growth phase were harvested and counted for tumor inoculation.
Tumor Inoculation: Each, mouse was inoculated subcutaneously at the flank region with HCT-1.16 cells (1.0×106) in 0.1 ml of 1×PBS mixed with Matrigel (1:1) for tumor development. The day Xenotransplantation was performed is denoted as day 0.
Thirty (30) animals with approx 100-150 mm^3 tumors were selected for HCT-116 follow up experiment and randomly placed Into Groups 1, 2, […], 4, 5, and 6 as shown in Table 8.
Group Assignment: Before grouping and treatment, all animals were weighed and fee tumor volumes were confirmed (100-150 mm^3) using electronic caliper. Since the tumor volume can affect fee effectiveness of any given treatment mice into groups using randomized block design as following: First the experimental animals were divided into homogeneous blocks based on their tumor volume. Secondly, within each block, randomization of experimental animals to different groups By using randomized block design to assign experimental animals, we ensure that each animal has the same probability of being assigned to any given treatment groups and therefore systematic error is minimized.
(§1) Treatments were initiated when turner volume reached 100-150 mm^3. Treatments started on Day 5. Test compounds were administered intraperitoneally (II′) in 10 mg/mL solution comprising 10% N,N-dimethyl acetamide, 15% macrogol 15 hydroxy stearate, polyethylene glycol-15-hydroxystearate, and 75% aqueous hydroxypropyl-beta-cyclodextrin.
(§2) Observation and data collection: After tumor cells inoculation, the animals were checked daily for morbidity and mortality. At the time of routine monitoring, the animals were checked for any adverse effects of tumor growth and treatments on normal behavior such as mobility, visual estimation of food and water consumption, body weight gain/loss, eye/hair matting and any other abnormal effects, Death and observed clinical signs were recorded, per […] IACUC. Tumor volumes were measured every 3-4 days in two dimensions using an electronic caliper, sad the volume data are expressed in, mm3 using the formula: V=0.5 a×b^2 where a and b are fee long and short diameters of the tumor, respectively. Dosing and tumor volume measurement procedures were conducted in a Laminar Flow Cabinet according to Altogen Labs IACUC regulations.
Statistics: Summary statistics, the mean and the standard error of the mean (SEM), are provided for the tumor volume of each group at each time point. Statistical analysis of difference in tumor volume among the groups and the analysis of drug interaction were conducted on the data obtained after the final dose.

[3] = HCT-116 xenograft model, body weight and adverse events; assay type: in vivo; settings: Groups 2-6 of Table 8; IP daily for 20 days
Procedure: as §1, §2
Body weight loss daring fee study: Sacrifice fee mouse when one measurement of body weight loss (BWL)>20% (only for control animals). Animal research associated wife this study was conducted under Altogen Labs IACUC regulatory space. Altogen Labs IACUC guidelines were followed in case of BWL and any other conditions.

ubiquitinated proteins = assay: Mechanistic study: Ub (FK-2) western blot; assay type: cell-based; settings: ES-2; epoxomicin 60 nM; 18 hours
Procedure: In order to establish that the decrease in Cyclin D seen after Compound 42 treatment is due to proteasomal degradation, ES-2, ovarian cancer cell line was treated with Compound 42 (250 nM) in the presence or absence of epoxomicin, a specific inhibitor of the proteasome (60 nM) for 18 hours. Following the treatment, western blotting for Cyclin D (FIG. 10A), Ub (FK-2) (FIG. 10B), and GAPDH control (bottom blot, below FIGS. 10A and 10B) was performed. Epoxomicin is a specific inhibitor of the proteasome.

HCT-116 = assay: Senescence quantification (SA-βGal), Example 6A; assay type: cell-based; settings: Compound 42 250 nM, Palbociclib 1 μM
Procedure: Day 1: 96 well plate was seeded with 4000 cells/well and incubated for 24 hours at 37° C. […]
Day 6: Senescence cells histochemical Staining Kit (Sigma) was used. The growth medium form the cells were aspirated then washed twice with fresh […]. […] 100 μL filtered Fixation Buffer was added per well and the plate was incubated for 6-7 minutes at room temperature. Then, the cells were rinsed 3 times with PBS. 50 μL of the Staining Mixture was added per well and incubated at 37° C. overnight without CO2 (staining is pH dependent). After staining, the Staining Mixture was removed, PBS and Hoechst dye (1 μg/mL) were added. Ten images were taken with Epifluorescence Microscope using the blue filter and 10 images were taken in the brightfield. The images were used to count the total cell number—the positive blue cells were counted in the bright field. The percentage of cells expressing β-galactosidase was calculated.
Method 1: Mammalian β-Galactosidase Assay Kit (Thermo Scientific) was used. […] The cells were washed once with PBS. 100 μL of the β-Galactosidase Assay Reagent was added to each well and the plate was covered and incubated for 30 minutes at 37° C. without CO2. The absorbance was measured at 405 nm. […]
Method 2: Assay of a portion of the lysate. […] 25 μL of lysate was removed and use it for Protein Quantification (BCA). […]
Senescence was quantified according to Example 4. […]

| Compound | cyclin D expression (cyclin D1 [1]) | Cyclin D1 expression (cyclin D1 [2]; HCT-116) | Cyclin D1 expression (cyclin D1 [2]; TOV-112) | further results |
| --- | --- | --- | --- | --- |
| Cc1ccccc1C(=O)Nc1nc(-c2ncccc2C)nn1-c1cccc(F)c1 [Compound 146] | appreciably reduce Cyclin D expression | reduction of Cyclin D1 expression | reduction of Cyclin D1 expression | – |
| Cc1ccccc1C(=O)Nc1nc(NC(=O)c2ccccc2C)n(-c2ccc(Cl)cc2)n1 [Compound Q3] | – | – | – | tumor growth (tumor volume) (HCT-116 xenograft): reduce the tumor growth; weight loss or adverse events [3]: No weight loss or any adverse events |
| Cc1ccccc1C(=O)Nc1nc(-c2ncccc2C)nn1-c1ccccc1 [Compound S3] | appreciably reduce Cyclin D expression | reduction of Cyclin D1 expression | reduction of Cyclin D1 expression | – |
| CC[C@H](C)[C@H](NC(=O)[C@H]([C@@H](C)CC)N(C)C(C)=O)C(=O)N[C@H](C(=O)N[C@@H](CC(C)C)C(=O)[C@@]1(C)CO1)[C@@H](C)O [epoxomicin] | – | – | – | ubiquitinated proteins (FK-2 antibody) (ubiquitinated proteins): overall increase of ubiquitinated proteins |
| CC(=O)c1c(C)c2cnc(Nc3ccc(N4CCNCC4)cn3)nc2n(C2CCCC2)c1=O [palbociclib, reference compound] | – | – | – | apoptosis or other cell death (HCT-116): No apoptosis or other cell death was observed |
